# Test results taken from patent US12139508B2, “Steroid derivative regulators, method for preparing the same, and uses thereof” (JIANGSU HANSOH PHARMACEUTICAL GROUP CO., LTD., priority 2018, dated 2024).
# pIC50: −log10 of the molar value. Like-named read-outs stand apart in the source and are kept apart here.
# Key:
# GABA-A receptor = test: 35S-TBPS binding assay (GABAA receptor binding ability test); design: species or system Sprague-Dawley rat; conditions: rat cerebral cortex cell membrane, 5 μM GABA, 2 nM 35S-TBPS; read-out: 35S-TBPS bindng test: IC50 on inhibiting the TBPS binding activity
# In short: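 Rat (male Sprague-Dawley) cortical membranes in PBS were preincubated 5 min at 25° C with compound (from 1 μM, 3-fold, 8 points, 1% DMSO), then 5 μM GABA 5 min, then 2 nM ^35S-TBPS for 20 h at 4° C. Filter-bound counts gave % inhibition against DMSO and 10 μM P026-2 controls; IC50 by 4-parameter fit.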
# [1] = Pharmacokinetic assay in Balb/c mice (plasma and brain tissue); type: in vivo; conditions: mouse, po, 5 mg/kg p.o., male Balb/c mice; for AUC(0-t): read-out: Area under curve AUC0-t; for AUC(0-inf): read-out: Area under curve AUC0-∞; for half-life: read-out: Half-life t1/2 (converted); for MRT: read-out: Mean residence time MRT; for Tmax: read-out: Peak time tmax; for Cmax: read-out: Plasma concentration Cmax
# Method: Balb/c mice were used as test animals. The pharmacokinetic behavior in mice (plasma and brain tissue) of the compounds of Examples 2, 3, 5, 6, 9, 13, 59, 60, 61, 63, 71-74, 81, 103, 130, 134, 135, 137, 138, 140, 141, 143, 145 and 146 orally administered at a dose of 5 mg/kg was studied.
# Each group had 24 male Balb/c mice. After an overnight fast, Balb/c mice were administered p.o. with the test compound at an administration dose of 5 mg/kg and an administration volume of 10 mL/kg.
# 0.2 ml of blood was taken from the heart before administration and at 0, 0.5, 1, 2, 4, 6, 8 and 24 hours after administration. The samples were stored in EDTA-K2 tubes, and centrifuged for 6 minutes at 4° C., 6000 rpm to separate the plasma. The plasma samples were stored at −80° C. The mice were sacrificed with CO2, and the whole brain tissue was taken out, weighed, placed in a 2 mL centrifuge tube and stored at −80° C.
# 1) 160 μL of acetonitrile was added to 40 μL of the plasma sample for precipitation, and then the mixture was centrifuged for 5-20 minutes at 3500×g.
# 2) 90 μL of acetonitrile containing the internal standard (100 ng/mL) was added to 30 μL of the plasma and brain homogenate samples for precipitation, and then the mixture was centrifuged for 8 minutes at 13000 rpm.
# 3) 70 μL of the treated supernatant was taken and added to 70 μL of water, and mixed by vortex for 10 minutes. 20 μL of the mixture was taken to analyze the concentration of the test compound by LC/MS/MS. LC/MS/MS analysis instrument: AB Sciex API 4000 Qtrap.
# • Liquid chromatography condition: Shimadzu LC-20AD pump. • Chromatographic column: Agilent ZORBAX™ XDB-C18 (50×2.1 mm, 3.5 μm) (note: Aglient ZORBAX™ is a kind of column used in the reverse HPLC); • Mobile phase: Eluent A was 0.10% formic acid in water, and Eluent B was acetonitrile. • Flow rate: 0.4 mL/min • Elution time: 0-4.0 minutes, the eluent is as follows:
# The main parameters of pharmacokinetics were calculated by WinNonlin 6.1.
SMILES,pIC50 (GABA-A receptor),AUC(0-t) ([1]; brain tissue) [ng·h/mL],AUC(0-inf) ([1]; brain tissue) [ng·h/mL],half-life ([1]; brain tissue) [h],MRT ([1]; brain tissue) [h],Tmax ([1]; brain tissue) [h],Cmax ([1]; brain tissue) [ng/mL],AUC(0-t) ([1]; plasma) [ng·h/mL],AUC(0-inf) ([1]; plasma) [ng·h/mL],half-life ([1]; plasma) [h],MRT ([1]; plasma) [h],Tmax ([1]; plasma) [h],Cmax ([1]; plasma) [ng/mL]
"C[C@@]1(O)CC[C@H]2[C@H](CC[C@@H]3[C@@H]2CC[C@@]2(C)[C@H]3[C@@H]3C[C@@H]3[C@@H]2C(=O)COc2cnc(C(F)(F)F)nc2)C1 [Example 130, 1-((2R,4aS,4bR,6aS,7S,7aS,8aR,8bR,8cR,10aR)-2-Hydroxy-2,6a-dimethyloctadecahydrocyclopropa[4,5]cyclopenta[1,2-a]phenanthren-7-yl)-2-((2-(trifluoromethyl)pyrimidin-5-yl)oxy)ethan-1-one]",8.38,2310,2630,2.49,3.88,0.5,563,1390,1560,2.21,3.83,0.5,307
"CC[C@@H]1C[C@H](C(=O)Cn2ccc(C(F)(F)F)n2)[C@@]2(C)CC[C@H]3[C@@H](CC[C@@H]4C[C@](C)(O)CC[C@@H]43)[C@H]12 [Example 138, 1-((3R,5R,8R,9R,10S,13S,14S,15R,17S)-15-Ethyl-3-hydroxy-3,13-dimethylhexadecahydro-1H-cyclopenta[a]phenanthren-17-yl)-2-(3-(trifluoromethyl)-1H-pyrazol-1-yl)ethan-1-one]",7.60,773,935,1.47,2.38,0.5,314,662,730,1.66,2.83,0.5,432
"CC[C@@H]1C[C@H](C(=O)Cn2nccn2)[C@@]2(C)CC[C@H]3[C@@H](CC[C@@H]4C[C@](C)(O)CC[C@@H]43)[C@H]12 [Example 141, 1-((3R,5R,8R,9R,10S,13S,14S,15R,17S)-15-Ethyl-3-hydroxy-3,13-dimethylhexadecahydro-1H-cyclopenta[a]phenanthren-17-yl)-2-(2H-1,2,3-triazol-2-yl)ethan-1-one]",7.62,2150,2250,1.68,2.68,0.5,1050,3550,3630,1.35,2.55,0.5,1630
"C[C@@]1(O)CC[C@H]2[C@H](CC[C@@H]3[C@@H]2CC[C@@]2(C)[C@H]3[C@@H]3C[C@@H]3[C@@H]2C(=O)Cn2ccc(C(F)(F)F)n2)C1 [Example 6, 1-((2R,4aS,4bR,6aS,7S,7aS,8aR,8bR,8cR,10aR)-2-Hydroxy-2,6a-dimethyloctadecahydrocyclopropa[4,5]cyclopenta[1,2-a]phenanthren-7-yl)-2-(3-(trifluoromethyl)-1H-pyrazol-1-yl)ethan-1-one]",8.51,917,964,1.9,2.4,0.5,464,409,484,3.19,4.03,0.5,219
"C[C@@H]1C[C@H](C(=O)Cn2cc(C(F)(F)F)cn2)[C@@]2(C)CC[C@H]3[C@@H](CC[C@@H]4C[C@](C)(O)CC[C@@H]43)[C@H]12 [Example 59, 1-((3R,5R,8R,9R,10S,13S,14S,15R,17S)-3-Hydroxy-3,13,15-trimethylhexadecahydro-1H-cyclopenta[a]phenanthren-17-yl)-2-(4-(trifluoromethyl)-1H-pyrazol-1-yl)ethan-1-one]",8.21,2640,2680,3.18,4.81,1,678,1300,1320,2.99,4.15,0.5,554
"C[C@@H]1C[C@H](C(=O)Cn2ncnn2)[C@@]2(C)CC[C@H]3[C@@H](CC[C@@H]4C[C@](C)(O)CC[C@@H]43)[C@H]12 [Example 63, 1-((3R,5R,8R,9R,10S,13S,14S,15R,17S)-3-Hydroxy-3,13,15-trimethylhexadecahydro-1H-cyclopenta[a]phenanthren-17-yl)-2-(2H-tetrazol-2-yl)ethan-1-one]",8.21,603,618,0.72,1.21,0.5,486,599,604,2.58,2.42,0.5,335
"C[C@@]1(O)CC[C@H]2[C@H](CC[C@@H]3[C@@H]2CC[C@@]2(C)[C@H]3[C@@H]3C[C@@H]3[C@@H]2C(=O)Cn2cc(C(=O)N3CCC3)cn2)C1 [Example 102, 2-(4-(Azetidine-1-carbonyl)-1H-pyrazol-1-yl)-1-((2R,4aS,4bR,6aS,7S,7aS,8aR,8bR,8c R,10aR)-2-hydroxy-2,6a-dimethyloctadecahydrocyclopropa[4,5]cyclopenta[1,2-a]phenanthren-7-yl)ethan-1-one]",7.19,,,,,,,,,,,,
"Cc1nn(CC(=O)[C@H]2[C@H]3C[C@H]3[C@H]3[C@@H]4CC[C@@H]5C[C@](C)(O)CC[C@@H]5[C@H]4CC[C@@]32C)cc1C#N [Example 37A, 1-(2-((2R,4aS,4bR,6aS,7S,7aS,8aR,8bR,8cR,10aR)-2-Hydroxy-2,6a-dimethyloctadecahydrocyclopropa[4,5]cyclopenta[1,2-a]phenanthren-7-yl)-2-oxoethyl)-3-methyl-1H-pyrazole-4-carbonitrile]",7.81,,,,,,,,,,,,
"Cc1nnnn1CC(=O)[C@H]1[C@H]2C[C@H]2[C@H]2[C@@H]3CC[C@@H]4C[C@](C)(O)CC[C@@H]4[C@H]3CC[C@@]21C [Example 101, 1-((2R,4aS,4bR,6aS,7S,7aS,8aR,8bR,8cR,10aR)-2-Hydroxy-2,6a-dimethyloctadecahydrocyclopropa[4,5]cyclopenta[1,2-a]phenanthren-7-yl)-2-(5-methyl-1H-tetrazol-1-yl)ethan-1-one]",7.94,,,,,,,,,,,,
"C[C@@]1(O)CC[C@H]2[C@H](CC[C@@H]3[C@@H]2CC[C@@]2(C)[C@H]3[C@H](C3CC3)C[C@@H]2C(=O)Cn2cc(C#N)c(Cl)n2)C1 [Example 147, 3-Chloro-1-(2-((3R,5R,8R,9R,10S,13S,14S,15S,17S)-15-cyclopropyl-3-hydroxy-3,13-dimethylhexadecahydro-1H-cyclopenta[a]phenanthren-17-yl)-2-oxoethyl)-1H-pyrazole-4-carbonitrile]",7.61,,,,,,,,,,,,
"C[C@@]1(O)CC[C@H]2[C@H](CC[C@@H]3[C@@H]2CC[C@@]2(C)[C@H]3[C@@H]3C[C@@H]3[C@@H]2C(=O)Cn2ncc3ccncc32)C1 [Example 42, 1-((2R,4aS,4bR,6aS,7S,7aS,8aR,8bR,8cR,10aR)-2-hydroxy-2,6a-dimethyloctadecahydrocyclopropa[4,5]cyclopenta[1,2-a]phenanthren-7-yl)-2-(1H-pyrazolo[3,4-c]pyridin-1-yl)ethan-1-one]",7.42,,,,,,,,,,,,
